The test system of the data set is ErbB2-overexpressing metastatic breast cancer. In words: Randomized clinical study of chemotherapy with or without HERCEPTIN in patients with metastatic breast cancer. It is filed as in vivo, human. The text has this: Eligibility Criteria Patients had to fulfill all of the following criteria to be eligible for study admission: • Metastatic breast cancer • Overexpression of the ErbB2 (HER2) oncogene (2+ to 3+ as determined by immunohistochemistry or fluorescence in situ hybridization (FISH). [Tumor expression of ErbB2 can be determined by immunohistochemical analysis, as previously described (Slamon et al., [1987] and [1989], supra), of a set of thin sections prepared from the patient's paraffin-archived tumor blocks. The primary detecting antibody used is murine 4D5 MAb, which has the same CDRs as the humanized antibody used for the treatment.
Measurable disease was defined as any mass reproducibly measurable in two perpendicular diameters by physical examination, X-ray (plain films), computerized tomography (CT), magnetic resonance imaging (MRI), ultrasound, or photographs.
Osteoblastic metastases, pleural effusions, or ascites were not considered to be measurable. Measurable lesions must be at least 1 cm in greatest dimension. Enumeration of evaluable sites of metastatic disease and number of lesions in an evaluable site (e.g. lung) had to be recorded on the appropriate Case Report Form (CRF). If a large number of pulmonary or hepatic lesions were present, the six largest lesions per site were followed. • The ability to understand and willingness to sign a written informed consent form • Women≧18 years • Suitable candidates for receiving concomitant cytotoxic chemotherapy as evidenced by screening laboratory assessments of hematologic, renal, hepatic, and metabolic functions.
Exclusion Criteria Patients with any of the following were excluded from study entry: • Prior cytotoxic chemotherapy for metastatic breast cancer Patients may have received prior hormonal therapy (e.g. tamoxifen) for metastatic disease or cytotoxic therapy in the adjuvant setting. • Concomitant malignancy that has not been curatively treated • A performance status of <60% on the Karnofsky scale • Pregnant or nursing women; women of childbearing potential, unless using effective contraception as determined by the investigator • Bilateral breast cancer (either both primary tumors must have 2+ to 3+ HER2 overexpression, or the metastatic site must have 2+ to 3+ HER2 overexpression) • Use of investigational or unlicensed agents within 30 days prior to study entry • Clinically unstable or untreated metastases to the brain (e.g. requiring radiation therapy)
Half the patients (stratified by chemotherapy) were randomized to additionally receive the HERCEPTIN® antibody (see below).
Beginning on day 7, patients received weekly administration of 2 mg/kg antibody (i.v.) over a 90-minute period. […]

[1] abbreviates: median follow-up of 10.5 months.

As to `CC(=O)O[C@H]1C(=O)[C@@]2(C)[C@H]([C@H](OC(=O)c3ccccc3)[C@]3(O)C[C@H](OC(=O)[C@H](O)[C@@H](NC(=O)c4ccccc4)c4ccccc4)C(C)=C1C3(C)C)[C@]1(OC(C)=O)CO[C@@H]1C[C@@H]2O` [T, paclitaxel], the “syndrome of myocardial dysfunction, Grade 3/4” value was found to be 0%. Under setting [1], the “AE (%), overall severe adverse events” value was determined as 59%; the “RR (%), response rates” value is on record as 25.0%; the “TTP (months), time to disease progression” value turned out to be 4.2 months.

(Values after patent US8425908B2, “Treatment with anti-ErbB2 antibodies” (Genentech, Inc., priority 1997, dated 2013).)
